# In ChEMBL document CHEMBL1201862, “PubChem BioAssay data set” (2004):
#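 Five compound concentrations were applied to cells in 96-well plates for 48 hours; endpoints were derived by simple linear interpolation of the resulting dose-response curve. GI50 marks 50% less growth.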 The source made the active and inactive calls. No stated cut-off is given here; in the data, active = GI50 up to about 1.1 µM and inactive = higher.
# How the values were obtained:
# Experiment in all cases: growth of human tumour cells (NCI), 48 h
# SK-MEL-5 = test system: SK-MEL-5
# HCT-15 = test system: HCT-15
# UACC-62 = test system: UACC-62
# MDA-MB-231 = test system: MDA-MB-231
# NCI-H23 = test system: NCI-H23
# HCC 2998 = test system: HCC 2998
# U-251 = test system: U-251
# Hs-578T = test system: Hs-578T
# Malme-3M = test system: Malme-3M
# OVCAR-5 = test system: OVCAR-5
# SK-MEL-2 = test system: SK-MEL-2
# SW-620 = test system: SW-620
# HL-60 = test system: HL-60
# CCRF-CEM = test system: CCRF-CEM
# NCI-H226 = test system: NCI-H226
# SR = test system: SR
# SN12C = test system: SN12C
# RXF 393 = test system: RXF 393
# OVCAR-4 = test system: OVCAR-4
# SNB-75 = test system: SNB-75
Compound,GI50 (SK-MEL-5),GI50 (HCT-15) [µM],GI50 (UACC-62),GI50 (MDA-MB-231),GI50 (NCI-H23),GI50 (HCC 2998),GI50 (U-251),GI50 (Hs-578T),GI50 (Malme-3M),GI50 (OVCAR-5),GI50 (SK-MEL-2),GI50 (SW-620),GI50 (HL-60),GI50 (CCRF-CEM),GI50 (NCI-H226),GI50 (SR),GI50 (SN12C),GI50 (RXF 393),GI50 (OVCAR-4),GI50 (SNB-75)
O=C(O)CNC(=O)c1ccc(-c2ccccc2)cc1,> 100 µM (inactive),> 100,> 100 µM (inactive),> 100 µM (inactive),> 100 µM (inactive),> 100 µM (inactive),> 100 µM (inactive),75.7 µM (inactive),> 100 µM (inactive),> 100 µM (inactive),> 100 µM (inactive),> 100 µM (inactive),> 100 µM (inactive),> 100 µM (inactive),> 100 µM (inactive),> 100 µM (inactive),> 100 µM (inactive),> 100 µM (inactive),–,–
COC(=O)[C@@H]1CN(C(C)=O)C(=O)N1C(=O)OCc1ccccc1,> 100 µM (inactive),> 100,–,> 100 µM (inactive),> 100 µM (inactive),> 100 µM (inactive),> 100 µM (inactive),> 100 µM (inactive),> 100 µM (inactive),> 100 µM (inactive),> 100 µM (inactive),> 100 µM (inactive),> 100 µM (inactive),> 100 µM (inactive),> 100 µM (inactive),> 100 µM (inactive),> 100 µM (inactive),> 100 µM (inactive),> 100 µM (inactive),–
N#Cc1nc(CCCCCN2C(=O)c3ccccc3C2=O)oc1N,> 100 µM (inactive),> 100,–,> 100 µM (inactive),> 100 µM (inactive),16.3 µM (inactive),> 100 µM (inactive),> 100 µM (inactive),> 100 µM (inactive),> 100 µM (inactive),> 100 µM (inactive),> 100 µM (inactive),–,1.91 µM (inactive),> 100 µM (inactive),> 100 µM (inactive),> 100 µM (inactive),> 100 µM (inactive),> 100 µM (inactive),–
CC1CC(C)CC(NC2=NCCO2)C1 (stereo not drawn),> 100 µM (inactive),> 100,> 100 µM (inactive),> 100 µM (inactive),> 100 µM (inactive),> 100 µM (inactive),> 100 µM (inactive),> 100 µM (inactive),> 100 µM (inactive),> 100 µM (inactive),> 100 µM (inactive),> 100 µM (inactive),> 100 µM (inactive),> 100 µM (inactive),> 100 µM (inactive),> 100 µM (inactive),> 100 µM (inactive),> 100 µM (inactive),> 100 µM (inactive),–
Nc1nc(-c2ccccc2)c(CC(=O)O)s1,> 100 µM (inactive),> 100,> 100 µM (inactive),> 100 µM (inactive),–,–,> 100 µM (inactive),> 100 µM (inactive),> 100 µM (inactive),> 100 µM (inactive),> 100 µM (inactive),> 100 µM (inactive),20 µM (inactive),–,> 100 µM (inactive),> 100 µM (inactive),> 100 µM (inactive),> 100 µM (inactive),> 100 µM (inactive),> 100 µM (inactive)
Cc1cc(C)c(OC(=O)Nc2cccc3ccccc23)c(-c2ccccc2)c1,16.4 µM (inactive),34.4,30.4 µM (inactive),25.5 µM (inactive),30.5 µM (inactive),27.7 µM (inactive),37.8 µM (inactive),25 µM (inactive),32.4 µM (inactive),73.8 µM (inactive),> 10 µM (inactive),57.8 µM (inactive),21.1 µM (inactive),22.2 µM (inactive),18.3 µM (inactive),19.6 µM (inactive),38.2 µM (inactive),–,31.3 µM (inactive),14.5 µM (inactive)
O=[N+]([O-])C(=C(Nc1ccccc1)Nc1ccccc1)/C(Cl)=C(\Cl)Br,–,11.9,–,15.6 µM (inactive),12.1 µM (inactive),17.1 µM (inactive),15 µM (inactive),27 µM (inactive),16.5 µM (inactive),10.6 µM (inactive),18 µM (inactive),6.82 µM (inactive),1.76 µM (inactive),2.15 µM (inactive),0.671 µM (active),5.01 µM (inactive),13.7 µM (inactive),–,11.9 µM (inactive),12.4 µM (inactive)
C=C(c1ccc2[nH]c(NC(=O)OC)nc2c1)c1cccs1,0.0703 µM (active),< 0.0349,0.121 µM (active),0.365 µM (active),0.129 µM (active),0.217 µM (active),0.0791 µM (active),0.417 µM (active),0.0855 µM (active),2.1 µM (inactive),2.26 µM (inactive),–,–,–,0.22 µM (active),< 0.01 µM (active),0.839 µM (active),> 100 µM (inactive),–,–
CC(C)CCn1c(=O)c2c(=O)[nH][nH]c2c2ccccc21,> 100 µM (inactive),> 100,–,> 100 µM (inactive),> 100 µM (inactive),> 100 µM (inactive),> 100 µM (inactive),> 100 µM (inactive),> 100 µM (inactive),> 100 µM (inactive),–,> 100 µM (inactive),> 100 µM (inactive),> 100 µM (inactive),> 100 µM (inactive),> 100 µM (inactive),> 100 µM (inactive),–,> 100 µM (inactive),> 10 µM (inactive)
O=C(O)CN1C(=O)c2ccc(NC(=O)C(=O)O)cc2S1(=O)=O,> 100 µM (inactive),> 100,> 100 µM (inactive),> 100 µM (inactive),> 100 µM (inactive),> 100 µM (inactive),> 100 µM (inactive),> 100 µM (inactive),> 100 µM (inactive),> 100 µM (inactive),> 100 µM (inactive),> 100 µM (inactive),> 100 µM (inactive),> 100 µM (inactive),> 100 µM (inactive),> 100 µM (inactive),> 100 µM (inactive),> 100 µM (inactive),> 100 µM (inactive),–
CCCCc1cc2c(cc1O)CCC1C2CC[C@@]2(C)C1CC[C@@H]2O (stereo partly drawn),20.8 µM (inactive),23.8,11.6 µM (inactive),29.3 µM (inactive),20.2 µM (inactive),19.9 µM (inactive),19.4 µM (inactive),11.3 µM (inactive),20.7 µM (inactive),17.7 µM (inactive),18.4 µM (inactive),20.2 µM (inactive),–,21.5 µM (inactive),16.9 µM (inactive),21.4 µM (inactive),18.7 µM (inactive),2.89 µM (inactive),20.4 µM (inactive),13 µM (inactive)
CCc1ccccc1NC(=O)C(C#N)C1=C(Cl)C(=O)c2ccccc2C1=O (stereo not drawn),15.3 µM (inactive),14.7,16.8 µM (inactive),7.03 µM (inactive),12.6 µM (inactive),–,15.4 µM (inactive),19.3 µM (inactive),6.07 µM (inactive),18.6 µM (inactive),17.3 µM (inactive),18.4 µM (inactive),26.2 µM (inactive),3.41 µM (inactive),15.3 µM (inactive),21.6 µM (inactive),13.1 µM (inactive),20.5 µM (inactive),13.6 µM (inactive),17.3 µM (inactive)
Nc1ccc(/N=N\c2ccc(-c3ccc(O)cc3)cc2)c2ccc(S(=O)(=O)O)cc12,> 100 µM (inactive),> 100,> 100 µM (inactive),> 100 µM (inactive),> 100 µM (inactive),–,> 100 µM (inactive),> 100 µM (inactive),> 100 µM (inactive),> 100 µM (inactive),> 100 µM (inactive),> 100 µM (inactive),> 100 µM (inactive),> 100 µM (inactive),> 100 µM (inactive),> 100 µM (inactive),> 100 µM (inactive),> 100 µM (inactive),> 100 µM (inactive),77.1 µM (inactive)
CC(C)(O)CCc1ccc(O)c2c(=O)c3c(O)c4c(cc3oc12)O[C@H]1OC=C[C@@]41O [AUSTOCYSTIN D],0.0102 µM (active),< 0.01,< 0.01 µM (active),2.26 µM (inactive),< 0.01 µM (active),< 0.01 µM (active),< 0.01 µM (active),10.2 µM (inactive),1.08 µM (active),0.0615 µM (active),< 0.01 µM (active),< 0.01 µM (active),–,9.79 µM (inactive),< 0.01 µM (active),1.23 µM (inactive),8.69 µM (inactive),0.148 µM (active),< 0.01 µM (active),0.0562 µM (active)
C/C=C/[C@H](O[Si](C)(C)C(C)(C)C)[C@@H](O)/C=C/C(=O)OCC,16.3 µM (inactive),14.4,18.8 µM (inactive),25.8 µM (inactive),38.7 µM (inactive),16.4 µM (inactive),19.4 µM (inactive),29.9 µM (inactive),14.7 µM (inactive),31.1 µM (inactive),26.5 µM (inactive),19.3 µM (inactive),–,14.3 µM (inactive),29.4 µM (inactive),21.1 µM (inactive),23.1 µM (inactive),21.8 µM (inactive),11.9 µM (inactive),37.5 µM (inactive)
O=C(NC(CS)C(=O)O)c1cccc2c(=O)c3ccccc3[nH]c12 (stereo not drawn),> 100 µM (inactive),> 100,> 100 µM (inactive),> 100 µM (inactive),> 100 µM (inactive),–,> 100 µM (inactive),> 100 µM (inactive),> 100 µM (inactive),> 100 µM (inactive),> 100 µM (inactive),> 100 µM (inactive),> 100 µM (inactive),–,> 100 µM (inactive),> 100 µM (inactive),> 100 µM (inactive),–,> 100 µM (inactive),> 100 µM (inactive)
